Results from ChEMBL document CHEMBL4680245, “Design, synthesis and biological evaluation of tetrahydroquinoline-based reversible LSD1 inhibitors” (Eur J Med Chem, 2020).

Legend:
[1] = system: MGC-803; assay: cells; settings: Homo sapiens, MGC-803, 72 h
Description: Antiproliferative activity against human MGC-803 cells incubated for 72 hrs by CCK8 assay

[2] = biological target: Lysine-specific histone demethylase 1A (Homo sapiens, UniProt O60341)
Description: Inhibition of human recombinant LSD1 using fluorogenic ADHP based substrate preincubated for 30 mins followed by substrate addition measured after 10 mins by horseradish peroxidase coupled fluorescence assay

[3] = system: NB-4; assay: cells; settings: Homo sapiens, NB-4, 72 h
Description: Antiproliferative activity against human NB-4 cells incubated for 72 hrs by CCK8 assay

[4] = system: A549; assay: cells; settings: Homo sapiens, A549, 72 h
Description: Antiproliferative activity against human A549 cells incubated for 72 hrs by CCK8 assay

[5] = system: MCF7; assay: cells; settings: Homo sapiens, MCF7, 72 h
Description: Antiproliferative activity against human MCF7 cells incubated for 72 hrs by CCK8 assay

[6] = system: PC-3; assay: cells; settings: Homo sapiens, PC-3, 72 h
Description: Antiproliferative activity against human PC-3 cells incubated for 72 hrs by CCK8 assay

[7] = system: THP-1; assay: cells; settings: Homo sapiens, THP-1, 72 h
Description: Antiproliferative activity against human THP-1 cells incubated for 72 hrs by CCK8 assay

[8] = Solubility of compound; assay type: physicochemical

| Structure (SMILES) | IC50 [2] [nM] | also measured |
| --- | --- | --- |
| Cn1c(C(=O)Nc2cccc3c2N(Cc2ccc(OCC4CCNCC4)cc2)CCC3)cc2sccc21 | 37.7 | IC50 [1]: 3690 nM; IC50 [3]: 2880 nM; IC50 [4]: 2820 nM; IC50 [5]: 6590 nM; IC50 [6]: 4070 nM; IC50 [7]: 20400 nM |
| Cn1c(C(=O)Nc2cccc3c2N(Cc2ccc(O[C@H]4CC[C@H](N)CC4)cc2)CCC3)cc2sccc21 | 36.6 |  |
| CN1CCC(Oc2ccc(CN3CCCc4cccc(NC(=O)c5cc6sccc6n5C)c43)cc2)CC1 | 38.2 |  |
| Cn1c(C(=O)Nc2cccc3c2N(Cc2ccc(OCc4cccc(C(N)=O)c4)cc2)CCC3)cc2sccc21 | > 50000 |  |
| Cn1c(C(=O)Nc2cccc3c2N(Cc2ccc(O[C@H]4CC[C@H](N(C)C)CC4)cc2)CCC3)cc2sccc21 | 36.3 |  |
| Cn1c(C(=O)Nc2cccc3c2N(Cc2ccc(OC[C@H]4CCNC4)cc2)CCC3)cc2sccc21 | 149 |  |
| Cn1c(C(=O)Nc2cccc3c2N(Cc2ccc(OCc4ccc(N)cc4)cc2)CCC3)cc2sccc21 | > 50000 |  |
| Cn1c(C(=O)Nc2cccc3c2N(Cc2ccc(O[C@H]4CC[C@@H](N)CC4)cc2)CCC3)cc2sccc21 | 38.3 | IC50 [4]: 7300 nM |
| Cn1c(C(=O)Nc2cccc3c2N(Cc2ccc(OCCCN)cc2)CCC3)cc2sccc21 | 47.4 |  |
| Cn1c(C(=O)Nc2cccc3c2N(Cc2ccc(OCC4CCOCC4)cc2)CCC3)cc2sccc21 | 732 |  |
| Cn1c(C(=O)Nc2cccc3c2N(Cc2ccc(OC[C@@H]4CCNC4)cc2)CCC3)cc2sccc21 | 80.4 | IC50 [4]: 5230 nM |
| CN(C)c1cccc(COc2ccc(CN3CCCc4cccc(NC(=O)c5cc6sccc6n5C)c43)cc2)c1 | > 50000 |  |
| COc1ccc2c(c1)cc(C(=O)Nc1cccc3c1N(Cc1ccc(OC4CCNCC4)cc1)CCC3)n2C | > 50 |  |
| Cn1c(C(=O)Nc2cccc3c2N(Cc2ccc(OCc4ccc(C(N)=O)cc4)cc2)CCC3)cc2sccc21 | > 50000 |  |
| CNc1cccc(COc2ccc(CN3CCCc4cccc(NC(=O)c5cc6sccc6n5C)c43)cc2)c1 | > 50000 |  |
| CN(C)CCCOc1ccc(CN2CCCc3cccc(NC(=O)c4cc5sccc5n4C)c32)cc1 | 31.3 |  |
| Cn1c(C(=O)Nc2cccc3c2N(Cc2ccc(OCc4cccc(C#N)c4)cc2)CCC3)cc2sccc21 | > 50000 |  |
| Cc1ccc2c(c1)cc(C(=O)Nc1cccc3c1N(Cc1ccc(OC4CCNCC4)cc1)CCC3)n2C | > 50 |  |
| Cn1c(C(=O)Nc2cccc3c2N(Cc2ccc(OCc4cccc([N+](=O)[O-])c4)cc2)CCC3)cc2sccc21 | > 50000 |  |
| Cn1c(C(=O)Nc2cccc3c2N(Cc2ccc(OC4CCNCC4)cc2)CCC3)cc2sccc21 | 36.4 | IC50 [1]: 2170 nM; IC50 [3]: 2780 nM; IC50 [4]: 1250 nM; IC50 [5]: 5720 nM; IC50 [6]: 3640 nM; IC50 [7]: 18100 nM |
| N[C@H]1CC[C@H](N[C@H]2C[C@@H]2c2ccccc2)CC1 |  | IC50 [1]: > 30000 nM; IC50 [3]: > 30000 nM; IC50 [4]: > 30000 nM; IC50 [5]: > 30000 nM; IC50 [6]: > 30000 nM; IC50 [7]: > 30000 nM |
| O=C(Nc1cccc2c1N(Cc1ccc(OC3CCNCC3)cc1)CCC2)c1ccc(C(F)(F)F)nc1 | > 50 |  |
| Cn1ccc2cc(C(=O)Nc3cccc4c3N(Cc3ccc(OC5CCNCC5)cc3)CCC4)ccc21 | 25.6 |  |
| Cn1c(C(=O)Nc2cccc3c2N(Cc2ccc(OC4CCNC4)cc2)CCC3)cc2sccc21 (centres undefined) | 46.8 | IC50 [4]: 3640 nM |
| Cn1c(C(=O)Nc2cccc3c2N(Cc2ccc(OCc4ccc([N+](=O)[O-])cc4)cc2)CCC3)cc2sccc21 | > 50000 |  |
| Cn1c(C(=O)Nc2cccc3c2N(Cc2ccc(OCc4ccc(C#N)cc4)cc2)CCC3)cc2sccc21 | > 50000 |  |
| CN1CCC(COc2ccc(CN3CCCc4cccc(NC(=O)c5cc6sccc6n5C)c43)cc2)CC1 | 53.5 |  |

Second part, led by results:

| IC50 [2] [nM] | Structure (SMILES) | also measured |
| --- | --- | --- |
| 8.25 | Cn1c(C(=O)Nc2cccc3c2N(Cc2ccc(OC4CC[N+](C)(C)CC4)cc2)CCC3)cc2sccc21 | solubility [8]: Insoluble |
| 1.82 | O=C(Nc1cccc2c1N(Cc1ccc(OC3CCNCC3)cc1)CCC2)c1ccc(C(F)(F)F)cc1 |  |
| 1.56 | Cc1ccncc1C(=O)Nc1cccc2c1N(Cc1ccc(OC3CCNCC3)cc1)CCC2 |  |
| 2.65 | O=C(Nc1cccc2c1N(Cc1ccc(OC3CCNCC3)cc1)CCC2)c1cc2ccccc2n1CC1CC1 |  |
| 0.92 | O=C(Nc1cccc2c1N(Cc1ccc(OC3CCNCC3)cc1)CCC2)c1nc2ccccc2s1 |  |
| 16.3 | Cn1c(C(=O)Nc2cccc3c2N(Cc2ccc(OC4CCNCC4)cc2)CCC3)cc2cc(Cl)ccc21 |  |
| 0.15 | O=C(Nc1cccc2c1N(Cc1ccc(OC3CCNCC3)cc1)CCC2)c1cc2ccccc2n1CCCl |  |
| 1.52 | CCCn1c(C(=O)Nc2cccc3c2N(Cc2ccc(OC4CCNCC4)cc2)CCC3)cc2ccccc21 |  |
| 13.1 | O=C(Nc1cccc2c1N(Cc1ccc(OC3CCNCC3)cc1)CCC2)c1ccc2ccccc2n1 |  |
| 0.54 | O=C(Nc1cccc2c1N(Cc1ccc(OC3CCNCC3)cc1)CCC2)c1cccc2[nH]ccc12 |  |
| 2.81 | O=C(Nc1cccc2c1N(Cc1ccc(OC3CCNCC3)cc1)CCC2)c1cc2ccccc2[nH]1 |  |
| 5.12 | O=C(Nc1cccc2c1N(Cc1ccc(OC3CCNCC3)cc1)CCC2)c1ccc(C(F)(F)F)cc1F |  |
| 4.44 | Cn1ccc2cccc(C(=O)Nc3cccc4c3N(Cc3ccc(OC5CCNCC5)cc3)CCC4)c21 |  |
| 0.53 | O=C(Nc1cccc2c1N(Cc1ccc(OC3CCNCC3)cc1)CCC2)c1cc2ccccc2o1 |  |
| 17.3 | Cn1c(C(=O)Nc2cccc3c2N(Cc2ccc(OCC4CC[N+](C)(C)CC4)cc2)CCC3)cc2sccc21 | solubility [8]: Insoluble |
| 2.31 | O=C(Nc1cccc2c1N(Cc1ccc(OC3CCNCC3)cc1)CCC2)c1nc2ccccc2[nH]1 |  |
| 0.18 | CC(C)n1c(C(=O)Nc2cccc3c2N(Cc2ccc(OC4CCNCC4)cc2)CCC3)cc2ccccc21 |  |
| 0.06 | O=C(Nc1cccc2c1N(Cc1ccc(OC3CCNCC3)cc1)CCC2)c1cc2ccccc2n1CCF | IC50 [1]: 6260 nM; IC50 [3]: 3290 nM; IC50 [4]: 7670 nM; IC50 [5]: 6960 nM; IC50 [6]: 2600 nM; IC50 [7]: 9780 nM |
| 18.8 | O=C(Nc1cccc2c1N(Cc1ccc(OC3CCNCC3)cc1)CCC2)c1cnc2ccccc2c1 |  |
| 3.92 | Cn1ccc2c(C(=O)Nc3cccc4c3N(Cc3ccc(OC5CCNCC5)cc3)CCC4)cccc21 |  |
| 4.55 | Cn1cc(C(=O)Nc2cccc3c2N(Cc2ccc(OC4CCNCC4)cc2)CCC3)c2ccccc21 |  |
| 0.15 | CCn1c(C(=O)Nc2cccc3c2N(Cc2ccc(OC4CCNCC4)cc2)CCC3)cc2ccccc21 | IC50 [1]: 3670 nM; IC50 [3]: 1100 nM; IC50 [4]: 8390 nM; IC50 [5]: 5590 nM; IC50 [6]: 5430 nM; IC50 [7]: 10200 nM |
| 0.39 | O=C(Nc1cccc2c1N(Cc1ccc(OC3CCNCC3)cc1)CCC2)c1cc2ccccc2n1C(F)F |  |
| 0.78 | O=C(Nc1cccc2c1N(Cc1ccc(OC3CCNCC3)cc1)CCC2)c1cc2ccccc2n1CC(F)F |  |
| 4.58 | O=C(Nc1cccc2c1N(Cc1ccc(OC3CCNCC3)cc1)CCC2)c1ccc2[nH]ccc2c1 |  |
| 0.93 | O=C(Nc1cccc2c1N(Cc1ccc(OC3CCNCC3)cc1)CCC2)c1cc2ccccc2s1 |  |
| 0.97 | Cn1nc(C(=O)Nc2cccc3c2N(Cc2ccc(OC4CCNCC4)cc2)CCC3)c2ccccc21 |  |
| 1.13 | Cn1c(C(=O)Nc2cccc3c2N(Cc2ccc(OC4CCNCC4)cc2)CCC3)cc2ccc(Cl)cc21 |  |
